Results as given in EP4748839A1 (CSPC Zhongqi Pharmaceutical Technology (Shijiazhuang) Co., …, priority 2023, dated 2025).
pIC50: −log10 of the molar value.

Assays:
GLP-1R = target: T1, GLP-1R (Homo sapiens, UniProt P43220); assay: GLP-1R agonistic effect in GLP1R-cAmp-Luc cells (luciferase reporter; titled 'Enzymatic assay'); assay type: cell-based; settings: for EC50: 4 hours incubation, firefly luciferin signal
T1 construct: expressed in transfected cells
How it was run: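 GLP1R-cAmp-Luc cells were exposed for 4 h at 37 °C to seven 5-fold dilutions starting at 125 nM final. Luciferin (150 µg/mL working) was then added for 30 min at room temperature, and the luciferase signal was read. EC50 came from the concentration–response curve.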

[1] = In vivo pharmacokinetic assay in mice; settings: mouse; ICR mice (female), oral gavage 10 mg/kg, plasma
Experimental: Experimental animals: ICR mice (female, 22-25 g), purchased from Beijing Vital River Laboratory Animal Technology Co., Ltd.
Experimental procedure: ICR mice were administered the test compounds by gavage. Whole blood samples of the mice were collected at 15 min, 0.5 h, 1 h, 2 h, 4 h, 8 h and 24 h after administration and centrifuged to isolate plasma. The compound concentration was measured by LC-MS/MS, and pharmacokinetic parameters such as Area Under the Concentration-Time Curve (AUC) were calculated using Winnolin software.
Oral gavage dose: 10 mg/kg.
Measurement method: Quantitative analysis was carried out in the LC/MS/MS system after pretreatment with a protein precipitation method.

hERG channel = hERG channel (Homo sapiens, UniProt Q12809); assay: hERG test, automated patch-clamp in CHO cells stably expressing hERG; assay type: cell-based; settings: hERG current inhibition, 0.37-30 µM, n = 2
Experimental: The potential inhibitory effects of the test compounds on the hERG channel were assessed using an automated patch-clamp system. In this study, the CHO cell line stably expressing the hERG gene was used, with Cisapride as the positive control.
The CHO-hERG-DUO cell line stably expressing the hERG channel was purchased from B'SYS GmbH. The cells were cultured in F12 (HAM) medium supplemented with 10%FBS, 100 U/mL penicillin-streptomycin, 100 µg/mL hygromycin, and 100 µg/mL G418. The cells were passaged three times per week and maintained at about 80% confluence.
The test compounds were dissolved in DMSO to prepare stock solutions at a final concentration of 10 mM; the stock solution was then serially diluted with DMSO in a 1: 3 ratio (3.33 mM, 1.11 mM and 0.37 mM); and the final concentrations of the test compounds were 30 µM, 10 µM, 3.33 µM, 1.11 µM and 0.37 µM.
A baseline was established using the blank vehicle. […] The hERG current was recorded for no less than 5 minutes to reach a steady state, and then 5 scans were captured. […] The experiments were performed in duplicate (n = 2) and hERG current inhibition by five concentrations of the compound were measured to determine the IC50.
The percent current inhibition was calculated using the following equation. […]
The IC50 was calculated using Graphpad Prism 8.0.

T1 sequence (P43220 24-463, species assumed): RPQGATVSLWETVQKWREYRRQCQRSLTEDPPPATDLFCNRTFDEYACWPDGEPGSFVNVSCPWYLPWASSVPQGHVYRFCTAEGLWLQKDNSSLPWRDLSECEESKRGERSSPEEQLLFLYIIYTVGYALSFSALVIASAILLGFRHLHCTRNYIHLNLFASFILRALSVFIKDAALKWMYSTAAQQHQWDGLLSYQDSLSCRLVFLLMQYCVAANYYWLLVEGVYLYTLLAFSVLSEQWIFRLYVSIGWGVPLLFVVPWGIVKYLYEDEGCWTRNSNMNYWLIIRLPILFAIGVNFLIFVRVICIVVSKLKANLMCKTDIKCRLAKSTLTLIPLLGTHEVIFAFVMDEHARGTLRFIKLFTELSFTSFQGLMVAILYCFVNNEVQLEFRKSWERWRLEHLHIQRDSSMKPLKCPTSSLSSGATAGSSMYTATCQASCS
Sequence of hERG channel (Q12809 whole entry): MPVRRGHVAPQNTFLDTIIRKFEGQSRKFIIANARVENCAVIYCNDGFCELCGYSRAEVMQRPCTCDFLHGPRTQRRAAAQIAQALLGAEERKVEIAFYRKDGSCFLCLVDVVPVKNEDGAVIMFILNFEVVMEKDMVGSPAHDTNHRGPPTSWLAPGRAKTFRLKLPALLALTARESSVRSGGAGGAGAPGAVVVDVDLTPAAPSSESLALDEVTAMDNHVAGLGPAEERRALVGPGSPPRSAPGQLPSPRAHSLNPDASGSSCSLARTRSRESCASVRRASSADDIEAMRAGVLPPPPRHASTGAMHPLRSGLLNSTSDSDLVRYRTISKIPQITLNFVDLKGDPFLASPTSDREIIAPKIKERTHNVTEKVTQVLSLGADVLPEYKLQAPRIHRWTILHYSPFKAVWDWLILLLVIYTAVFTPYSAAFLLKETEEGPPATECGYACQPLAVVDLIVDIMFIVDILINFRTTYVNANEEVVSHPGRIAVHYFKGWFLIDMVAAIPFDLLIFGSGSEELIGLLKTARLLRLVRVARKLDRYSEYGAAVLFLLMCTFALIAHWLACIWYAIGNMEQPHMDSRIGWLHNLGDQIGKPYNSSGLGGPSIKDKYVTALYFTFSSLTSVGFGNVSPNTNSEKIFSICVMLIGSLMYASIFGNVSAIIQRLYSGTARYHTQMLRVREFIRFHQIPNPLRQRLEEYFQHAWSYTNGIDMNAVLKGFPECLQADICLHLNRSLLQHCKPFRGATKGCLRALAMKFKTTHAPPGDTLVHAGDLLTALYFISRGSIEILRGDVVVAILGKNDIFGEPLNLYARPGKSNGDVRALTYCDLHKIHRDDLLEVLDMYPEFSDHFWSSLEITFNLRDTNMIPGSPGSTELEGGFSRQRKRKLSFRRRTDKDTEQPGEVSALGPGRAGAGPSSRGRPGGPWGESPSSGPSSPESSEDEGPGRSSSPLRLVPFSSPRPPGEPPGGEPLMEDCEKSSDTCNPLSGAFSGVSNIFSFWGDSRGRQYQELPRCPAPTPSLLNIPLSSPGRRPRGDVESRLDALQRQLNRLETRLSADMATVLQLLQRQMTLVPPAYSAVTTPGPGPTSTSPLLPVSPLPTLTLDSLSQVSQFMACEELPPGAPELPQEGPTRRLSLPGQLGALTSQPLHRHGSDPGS

SMILES | EC50 (GLP-1R) [nM] | AUC(0-t) [1] [ng·h/mL] | pIC50 (hERG channel; CHO-hERG-DUO cells) | EC50 of Positive reference / EC50 of Compound of the Present Application (GLP-1R; Positive reference is PF-06882961) | pIC50 (hERG channel; human, CHO-hERG-DUO cells stably expressing hERG)
COc1cc(C(=O)O)cc2c1nc(Cc1c(F)cc(-c3cccc(OCc4ccc(Cl)cc4OC(F)F)n3)c3c1CCO3)n2CC1(CF)CC1 [Compound 87, 2-((7-(6-((4-Chloro-2-(difluoromethoxy)benzyl)oxy)pyridin-2-yl)-5-fluoro-2,3-dihydrobenzofuran-4-yl)methyl)-1-((1-(fluoromethyl)cyclopropyl)methyl)-4-methoxy-1H-benzo[d]imidazole-6-carboxylic acid] | ≤ 1 | 12200 | < 4.52 |  | 
COc1cc(C(F)(F)F)ccc1COc1cccc(-c2cc(F)c(Cc3nc4ccc(C(=O)O)cc4n3C[C@@H]3CCO3)c3c2OCC3)n1 [Compound 71, (S)-2-((5-fluoro-7-(6-((2-methoxy-4-(trifluoromethyl)benzyl)oxy)pyridin-2-yl)-2,3-dihydrobenzofuran-4-yl)methyl)-1-(oxetan-2-ylmethyl)-1H-benzo[d]imidazole-6-carboxylic acid] | ≤ 1 |  |  | Ratio ≥10 | < 4.52
